Laboratory results published in BindingDB's records for doi:10.1021/acschembio.5b00291 (Ujf-Embl-Cnrs, 2015).

Assays:
Assay in all cases: Isothermal Titration Calorimetry (ITC)
Settings in all cases: pH 8; 25 °C
Leucine--tRNA ligase = molecular target: T1, Leucine--tRNA ligase (Candida albicans (strain WO-1), UniProt C4YL05)
T1 sequence (C4YL05 whole entry): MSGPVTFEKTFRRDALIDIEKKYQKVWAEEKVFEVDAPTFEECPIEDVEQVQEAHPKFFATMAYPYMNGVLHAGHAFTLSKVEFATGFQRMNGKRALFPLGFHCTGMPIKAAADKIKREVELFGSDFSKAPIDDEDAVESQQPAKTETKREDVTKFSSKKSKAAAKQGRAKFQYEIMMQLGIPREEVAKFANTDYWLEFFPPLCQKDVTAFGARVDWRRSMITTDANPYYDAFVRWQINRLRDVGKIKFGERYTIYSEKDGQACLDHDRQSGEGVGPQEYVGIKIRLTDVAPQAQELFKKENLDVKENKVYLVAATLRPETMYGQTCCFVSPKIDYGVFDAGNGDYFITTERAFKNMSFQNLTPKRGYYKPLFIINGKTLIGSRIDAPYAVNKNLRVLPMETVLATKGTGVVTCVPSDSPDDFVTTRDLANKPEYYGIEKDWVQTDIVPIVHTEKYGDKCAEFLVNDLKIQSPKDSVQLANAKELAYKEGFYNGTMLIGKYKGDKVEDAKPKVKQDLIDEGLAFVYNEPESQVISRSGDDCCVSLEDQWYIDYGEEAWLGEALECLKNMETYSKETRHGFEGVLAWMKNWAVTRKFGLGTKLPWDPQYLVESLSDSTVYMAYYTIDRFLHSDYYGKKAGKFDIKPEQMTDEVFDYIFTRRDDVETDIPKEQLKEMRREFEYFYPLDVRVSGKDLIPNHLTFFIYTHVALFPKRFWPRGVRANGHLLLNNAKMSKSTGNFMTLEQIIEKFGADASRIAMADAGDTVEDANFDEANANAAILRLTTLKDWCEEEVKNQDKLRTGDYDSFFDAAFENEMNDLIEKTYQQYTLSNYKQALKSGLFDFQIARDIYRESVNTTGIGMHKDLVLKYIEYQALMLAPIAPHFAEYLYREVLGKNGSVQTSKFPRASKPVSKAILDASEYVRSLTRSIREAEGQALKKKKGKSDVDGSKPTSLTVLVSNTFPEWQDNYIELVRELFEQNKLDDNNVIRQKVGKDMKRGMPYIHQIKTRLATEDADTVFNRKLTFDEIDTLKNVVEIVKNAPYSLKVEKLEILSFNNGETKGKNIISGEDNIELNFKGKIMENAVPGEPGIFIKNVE
Description: (§1) ITC was performed using LeuRS CP1 domain wild-type, K510E mutant, or K510A mutant against AN2690-AMP at 25 °C by an ITC200 system (MicroCal, GE Healthcare). Wildtype protein and mutants were dialyzed against the titration buffer (50 mM HEPES-KOH, 30 mM KCl and 30 mM MgCl2, pH 8.0). Compound AN2690 and AMP were also prepared in the same buffer. A 60 μM protein solution was in the presence of 10 mM AMP in the calorimetric cell and titrated using 26 stepwise injections of 1.5 μL each with the compound AN2690 plus AMP. AN2690 solutions were placed in the syringe at 0.7 to 3 mM (depending on the expected affinity) along with 10 mM AMP. The heat generated after each ligand injection was measured base on the integral of the calorimetric signal. The resultant binding isotherms were analyzed by a nonlinear least-squares fit of the experimental data to a single site model using Microcal Origin 7.0 software. Experiments were duplicated and variability estimated to be 5% in the binding

[1] = molecular target: Leucine--tRNA ligase [A132I,E138V,K510E,I952T] (Candida albicans (strain WO-1), UniProt A0A1D8PS12, A132I/E138V/I952T/K510E)
Chain of Leucine--tRNA ligase [A132I,E138V,K510E,I952T] (A0A1D8PS12 whole entry A132I/E138V/K510E/I952T): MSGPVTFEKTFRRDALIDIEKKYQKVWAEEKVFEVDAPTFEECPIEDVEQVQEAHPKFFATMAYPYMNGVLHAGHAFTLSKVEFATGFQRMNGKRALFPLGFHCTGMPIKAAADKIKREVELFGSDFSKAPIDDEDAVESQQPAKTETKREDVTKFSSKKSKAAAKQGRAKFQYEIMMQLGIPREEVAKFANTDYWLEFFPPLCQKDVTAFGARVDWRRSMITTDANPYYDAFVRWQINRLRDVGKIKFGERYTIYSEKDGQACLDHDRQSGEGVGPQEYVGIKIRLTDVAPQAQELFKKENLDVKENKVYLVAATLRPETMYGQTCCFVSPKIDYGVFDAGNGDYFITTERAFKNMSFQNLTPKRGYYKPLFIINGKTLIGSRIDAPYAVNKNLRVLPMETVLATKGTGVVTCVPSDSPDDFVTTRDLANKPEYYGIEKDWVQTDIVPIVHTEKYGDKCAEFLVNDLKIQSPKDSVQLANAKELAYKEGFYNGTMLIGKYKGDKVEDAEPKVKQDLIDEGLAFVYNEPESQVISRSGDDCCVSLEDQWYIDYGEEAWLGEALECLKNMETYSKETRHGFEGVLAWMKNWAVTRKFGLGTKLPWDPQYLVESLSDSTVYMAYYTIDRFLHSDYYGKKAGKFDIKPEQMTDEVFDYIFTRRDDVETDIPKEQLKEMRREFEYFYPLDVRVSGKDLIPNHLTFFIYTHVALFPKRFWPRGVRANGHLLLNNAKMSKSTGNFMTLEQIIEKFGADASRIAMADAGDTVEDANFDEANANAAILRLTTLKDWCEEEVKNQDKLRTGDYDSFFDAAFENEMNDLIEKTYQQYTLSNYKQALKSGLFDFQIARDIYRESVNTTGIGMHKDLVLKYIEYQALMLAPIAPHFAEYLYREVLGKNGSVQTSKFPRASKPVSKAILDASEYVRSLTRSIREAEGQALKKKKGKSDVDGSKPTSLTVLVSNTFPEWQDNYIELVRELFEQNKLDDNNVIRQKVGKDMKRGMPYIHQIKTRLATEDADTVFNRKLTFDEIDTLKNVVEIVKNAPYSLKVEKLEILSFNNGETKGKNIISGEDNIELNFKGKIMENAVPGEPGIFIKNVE
Description: as §1

[2] = molecular target: Leucine--tRNA ligase [A132I,E138V,K510A,I952T] (Candida albicans (strain WO-1), UniProt A0A1D8PS12, A132I/E138V/I952T/K510A)
Chain of Leucine--tRNA ligase [A132I,E138V,K510A,I952T] (A0A1D8PS12 whole entry A132I/E138V/K510A/I952T): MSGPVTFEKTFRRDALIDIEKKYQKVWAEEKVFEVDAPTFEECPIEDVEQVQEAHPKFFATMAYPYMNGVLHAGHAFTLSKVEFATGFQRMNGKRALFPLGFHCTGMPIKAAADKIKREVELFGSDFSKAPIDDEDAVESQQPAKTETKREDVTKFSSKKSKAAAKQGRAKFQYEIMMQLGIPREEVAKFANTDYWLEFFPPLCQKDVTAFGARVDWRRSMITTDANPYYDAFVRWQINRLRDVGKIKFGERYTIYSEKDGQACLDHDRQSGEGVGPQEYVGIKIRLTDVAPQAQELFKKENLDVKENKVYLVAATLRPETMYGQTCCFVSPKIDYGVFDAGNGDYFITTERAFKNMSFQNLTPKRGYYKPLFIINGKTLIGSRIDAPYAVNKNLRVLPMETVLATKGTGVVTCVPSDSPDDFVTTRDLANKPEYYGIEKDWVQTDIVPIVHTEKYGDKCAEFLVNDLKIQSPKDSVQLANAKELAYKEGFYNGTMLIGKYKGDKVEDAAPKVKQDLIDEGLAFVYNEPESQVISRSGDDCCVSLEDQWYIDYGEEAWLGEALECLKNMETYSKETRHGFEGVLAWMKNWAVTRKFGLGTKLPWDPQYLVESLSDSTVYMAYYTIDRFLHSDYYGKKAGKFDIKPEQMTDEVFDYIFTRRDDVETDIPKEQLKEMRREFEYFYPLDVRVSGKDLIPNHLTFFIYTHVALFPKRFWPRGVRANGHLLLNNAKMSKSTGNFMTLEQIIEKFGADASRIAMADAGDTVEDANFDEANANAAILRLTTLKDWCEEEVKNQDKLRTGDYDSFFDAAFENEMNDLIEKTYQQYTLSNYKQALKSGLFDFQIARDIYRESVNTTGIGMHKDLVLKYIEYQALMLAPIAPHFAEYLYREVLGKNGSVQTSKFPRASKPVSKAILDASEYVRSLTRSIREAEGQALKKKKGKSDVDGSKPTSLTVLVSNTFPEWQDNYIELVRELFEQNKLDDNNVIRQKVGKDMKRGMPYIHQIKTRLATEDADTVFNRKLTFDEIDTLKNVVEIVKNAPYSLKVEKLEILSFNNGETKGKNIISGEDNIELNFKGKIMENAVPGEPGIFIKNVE
Description: as §1

CC[C@H]1O[C@@H](n2cnc3c(N)ncnc32)[C@H]2O[B-]3(OCc4cc(F)ccc43)OC12 (stereo partly drawn) [AN2690-AMP]
Kd (Leucine--tRNA ligase): 0.7 µM | Kd [1]: 21 µM | Kd [2]: 46 µM
